Experimental data taken from US20190345121A1, “PYRENE-BASED COMPOUNDS FOR INTRACELLULAR ORGANELLE IMAGING APPLICATIONS” (priority 2018, published 2019).

Legend:
DNA = assay: Fluorescence titration with DNA in PBS buffer; assay type: binding; conditions: PBS buffer pH=7.4, DNA <25 μg mL^−1
Text: The pyrene segment of the pyrene-based compounds having a pyridinium group of the present invention is thought to play an important role in the interaction of probes made with the pyrene-based compounds having a pyridinium group of the present invention with DNA, as planar aromatic compounds are usually regarded as DNA intercalators. In order to shed some light on the interaction between probes made from the pyrene-based compounds having a pyridinium group of the present invention and DNA, fluorescence spectra were acquired when DNA was added into probes made from the pyrene-based compounds having a pyridinium group of the present invention in a PBS buffer solution (pH=7.4). […] Therefore, the initial fluorescence quenching was attributed to the interaction between probes made from the pyrene-based compounds having a pyridinium group of the present invention and DNA, possibly involving insertion of dye molecules into DNA groves.

[1] = in the presence of DNA in Tris buffer; cited from earlier work
A549 cells = assay: Long-term imaging ability; assay type: cell-based, human
Experimental: For the long-term imaging ability assessment aspect of the experiment, a Zeiss LSM 710 fluorescence confocal microscope with identical settings were used for photostability comparisons of the probes (561 nm (15 mW) laser line; Laser power percentage 1.0; Digital zoom=1; Pinhole=1A U; Master Gain=500; Digital offset=0). Different imaging plates with A549 cells were incubated for 30 minutes at […] with probes made using solutions of the pyrene-based compounds having a benzothiazolium group of the present invention as well as with probes made from LysoTracker® Red DND-99. Fluorescence confocal microscopy images were obtained at 30-minute intervals (identical fluorescence microscopy settings were used during the experiments). ImageJ (NIH) software was used to analyze the obtained images and average relative fluorescence intensity was plotted as a function of time.
The lack of cellular pH perturbation, in addition to its low toxicity, raised the possibility of using the pyrene-based compounds having a benzothiazolium group of the present invention for long term lysosome imaging. Thus, A549 cells were treated with a pyrene-based compound having a benzothiazolium group of the present invention (500 nM) over a period of 6 hours, which gave stable fluorescent confocal microscopy images as shown in FIG. 4A. […]

Structure (SMILES) | fluorescence change on initial addition of DNA (DNA) | fluorescence quantum yield ϕfl [1] | cell morphology during long-term imaging (A549 cells; after 1.5 hours) | average fluorescence intensity vs. staining time (A549 cells; images every 30 minutes)
CN(C)CCNc1ccc(O)c2c1C(=O)c1c(O)ccc(NCCN(C)C)c1C2=O [DRAQ5] | partial fluorescence quenching | about 0.003 |  | 
CN(C)CCNC(=O)CCc1ccc2n1[B-](F)(F)[N+]1=C(c3ccc[nH]3)C=CC1=C2 [LysoTracker® Red DND-99] |  |  | significant morphological changes and notable cell shrinkage | significant decrease in relative intensity
